The target in one assay is T1, MacroD1 (Homo sapiens, UniProt Q9BQ69).
T1 construct: made in house
T1 sequence (Q9BQ69 1-325): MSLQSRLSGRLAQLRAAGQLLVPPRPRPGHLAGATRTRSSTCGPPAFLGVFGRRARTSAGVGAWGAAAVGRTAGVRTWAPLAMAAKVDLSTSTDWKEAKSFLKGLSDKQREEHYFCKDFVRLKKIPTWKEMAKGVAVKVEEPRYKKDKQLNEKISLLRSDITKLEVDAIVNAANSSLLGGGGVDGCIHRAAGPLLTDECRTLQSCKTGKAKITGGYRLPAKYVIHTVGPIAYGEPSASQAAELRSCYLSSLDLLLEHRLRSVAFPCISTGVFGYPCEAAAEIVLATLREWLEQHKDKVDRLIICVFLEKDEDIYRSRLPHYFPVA
Kind of assay: IC50 curves of binding to MacroD1 (Figure S2). The following applies: Figure S2, fitted.

Assay [1] deals with T2, SARS-CoV-2 Mac1 (Severe acute respiratory syndrome coronavirus 2, UniProt P0DTD1). Kind of assay: biochemical. It counts as binding.
The target of assay [2] is T3, CHIKV Mac (Chikungunya virus, UniProt Q8JUX6). The assay is described as follows: biochemical. It counts as binding.
For assay [3], the target named is T4, VEEV Mac (Venezuelan equine encephalitis virus, UniProt P27282). The assay is described as follows: biochemical. It counts as binding.
For assay [4], the target named is T5, MERS-CoV Mac1 (Middle East respiratory syndrome-related coronavirus, UniProt K9N7C7). The assay is described as follows: biochemical. It counts as binding.
The target of another assay is T6, MacroD2 (Homo sapiens, UniProt A1Z1Q3).
T6 construct: made in house
T6 sequence (A1Z1Q3 1-425): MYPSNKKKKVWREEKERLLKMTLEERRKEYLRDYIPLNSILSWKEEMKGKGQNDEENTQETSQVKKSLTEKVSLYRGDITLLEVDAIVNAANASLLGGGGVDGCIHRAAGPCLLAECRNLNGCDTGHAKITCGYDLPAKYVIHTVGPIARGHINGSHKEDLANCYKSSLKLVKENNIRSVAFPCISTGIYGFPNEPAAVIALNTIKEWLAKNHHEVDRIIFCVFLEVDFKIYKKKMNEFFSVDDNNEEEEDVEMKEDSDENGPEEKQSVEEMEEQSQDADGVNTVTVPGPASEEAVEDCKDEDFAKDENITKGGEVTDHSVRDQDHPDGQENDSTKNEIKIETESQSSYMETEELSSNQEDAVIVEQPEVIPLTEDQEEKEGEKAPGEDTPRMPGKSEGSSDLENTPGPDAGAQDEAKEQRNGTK
The assay is described as follows: IC50 curves of binding to MacroD2 (Figure S2). As to conditions: Figure S2, fitted.

For assay [5], the target named is T3, CHIKV Mac. The assay is described as follows: biochemical. It counts as binding. The source holds these as a separate data set.
Assay [6] concerns the target T5, MERS-CoV Mac1. The assay is described as follows: biochemical. It counts as binding. This is another data set of the same source.
For assay [7], the target named is T4, VEEV Mac. The assay is described as follows: biochemical. The class given is binding. This is another data set of the same source.
Assay [8] has as its target T2, SARS-CoV-2 Mac1. The assay is described as follows: biochemical. It counts as binding. The source holds these as a separate data set.
Assay [9] addresses T2, SARS-CoV-2 Mac1. As to conditions: cited from earlier work.

Values joined by “and” are separate entries in the source; they are usually repeats but may differ in a detail not shown here. Equal entries are not always repeated. Where two headings read alike, the source gives them in different places.

T4 sequence (P27282 1330-1489 limits assumed): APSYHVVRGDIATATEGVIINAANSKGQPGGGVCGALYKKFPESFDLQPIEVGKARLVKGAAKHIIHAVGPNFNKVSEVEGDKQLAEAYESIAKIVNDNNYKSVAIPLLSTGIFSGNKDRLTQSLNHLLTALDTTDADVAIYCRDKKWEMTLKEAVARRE
T5 sequence (K9N7C7 1110-1276 limits assumed): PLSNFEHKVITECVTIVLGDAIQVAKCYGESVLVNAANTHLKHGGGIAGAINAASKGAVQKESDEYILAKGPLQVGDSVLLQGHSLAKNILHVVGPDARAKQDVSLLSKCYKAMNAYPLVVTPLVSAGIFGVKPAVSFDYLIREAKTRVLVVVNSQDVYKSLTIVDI
T3 sequence (Q8JUX6 1334-1493 limits assumed): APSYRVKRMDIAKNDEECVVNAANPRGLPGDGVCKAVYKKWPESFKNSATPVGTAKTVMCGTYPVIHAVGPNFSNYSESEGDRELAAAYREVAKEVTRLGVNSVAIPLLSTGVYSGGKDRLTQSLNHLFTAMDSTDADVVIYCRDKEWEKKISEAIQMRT

By IC50 is commonly meant the concentration at which inhibition is half-maximal. As for `N#CC1(c2ccc3c(N)ncnn23)OC(COP(=O)(O)OP(=O)(O)OCC2OC(O)C(O)C2O)C(O)C1O` (stereo not shown) [NDPr], the half-inhibitory concentration (IC50) at MacroD1 was over 10 µM; against SARS-CoV-2 Mac1 [1], 800 nM and 170 nM and 290 nM; against CHIKV Mac [2], 0.92 µM; against VEEV Mac [3] it was 510 nM; against MERS-CoV Mac1 [4], 2900 nM; on MacroD2, over 10 µM.
As for `Nc1ncnc2c1ncn2[C@@H]1O[C@H](COP(=O)(O)OP(=O)(O)OC[C@H]2O[C@H](Oc3ccccc3)[C@H](O)[C@@H]2O)[C@@H](O)[C@H]1O` [Ph-ADPr], the IC50 at SARS-CoV-2 Mac1 [1] was 1900 nM and 730 nM and 1500 nM; on CHIKV Mac [2] it was 126 µM; at VEEV Mac [3] it was 7300 nM; at MERS-CoV Mac1 [4], 1800 nM.
With `N#C[C@@]1(c2ccc3c(N)ncnn23)O[C@H](COP(=O)(O)OP(=O)(O)OC[C@H]2O[C@H](Oc3ccccc3)[C@H](O)[C@@H]2O)[C@@H](O)[C@H]1O` [Ph-NDPr], the “fold better IC50 than ADPr” value on SARS-CoV-2 Mac1 [1] worked out at 6000 fold. Further, the “fold better IC50 than NDPr” value on SARS-CoV-2 Mac1 [1] turned out to be 100 fold. Further, the “fold better IC50 than Ph-ADPr” value on SARS-CoV-2 Mac1 [1] is reported as 500 fold. Moreover, the values for the half-maximal inhibitory concentration (IC50) at CHIKV Mac [2], at VEEV Mac [3] and at MERS-CoV Mac1 [4] were 9.3 µM, 220 nM and 460 nM, respectively.
The Kd is a measure of binding affinity in units of concentration. Turning to `CN(C)c1ccc2c(c1)Oc1cc(N(C)C)ccc1C21OC(=O)c2cc(C(=O)NCCCCCCNC(=O)CCc3cn([C@H]4O[C@H](COP(=O)(O)OP(=O)(O)OC[C@H]5O[C@@H](n6cnc7c(N)ncnc76)[C@H](O)[C@@H]5O)[C@@H](O)[C@H]4O)nn3)ccc21` [TAMRA-ADPr, reference compound], the Kd on CHIKV Mac [5] came out at 7200 nM; at MERS-CoV Mac1 [6], 830 nM; at VEEV Mac [7], 1700 nM; on SARS-CoV-2 Mac1 [8] (Kd), 2100 nM.
`CN(C)c1ccc2c(c1)Oc1cc(N(C)C)ccc1C21OC(=O)c2cc(C(=O)NCCCCCCNC(=O)CCc3cn([C@H]4O[C@H](COP(=O)(O)OP(=O)(O)OC[C@H]5O[C@@](C#N)(c6ccc7c(N)ncnn67)[C@H](O)[C@@H]5O)[C@@H](O)[C@H]4O)nn3)ccc21` [TAMRA-NDPr]: the “fold affinity improvement over TAMRA-ADPr” value at CHIKV Mac [5] was “more than 30 fold”. Besides, the Kd on CHIKV Mac [5] was 208 nM and 210 nM; on MERS-CoV Mac1 [6], 130 nM; on VEEV Mac [7], 39 nM; on SARS-CoV-2 Mac1 [8] (Kd) it was 15 nM. In addition, on SARS-CoV-2 Mac1 [8], the “fold more potent than TAMRA-ADPr” value is listed as “over 100 fold”.
Consider `CN(C)c1ccc2c(c1)Oc1cc(N(C)C)ccc1C21OC(=O)c2cc(C(=O)NCCCCCCNC(=O)CCc3cn(Cc4ccc(O[C@H]5O[C@H](COP(=O)(O)OP(=O)(O)OC[C@H]6O[C@@](C#N)(c7ccc8c(N)ncnn78)[C@H](O)[C@@H]6O)[C@@H](O)[C@H]5O)cc4)nn3)ccc21` [TAMRA-Ph-NDPr], for which the Kd on CHIKV Mac [5] is 810 nM; at MERS-CoV Mac1 [6] it was 11 nM; on VEEV Mac [7], 10 nM; on SARS-CoV-2 Mac1 [8] (Calculated Kd) it was 2.3 nM; at SARS-CoV-2 Mac1 [8] (Kd) it was 5.3 nM. The “fold more potent than TAMRA-ADPr” value on SARS-CoV-2 Mac1 [8] is given as “over 100 fold”.
Turning to `Nc1ncnc2c1ncn2C1OC(COP(=O)(O)OP(=O)(O)OCC2OC(Oc3ccc4c(C(F)(F)F)cc(=O)oc4c3)C(O)C2O)C(O)C1O` (stereo not shown) [TFMU-ADPr], on SARS-CoV-2 Mac1 [9], the IC50 was 590 nM and the “fold more potent than ADPr” value is over 20 fold.

These data come from paper PMC11106745 (ACS Chemical Biology, 2024).
